Data published in patent US11001590B2, “Pyrazolopyrimidine derivatives” (BAYER ANIMAL HEALTH GMBH, priority 2016, dated 2021).

How the values were obtained:
[1] = tested on: Dirofilaria immitis microfilariae; test: In vitro assay 3: Dirofilaria immitis microfilariae (DIROIM L1), motility; conditions: 72 h, reduction of motility vs negative control, 72 h incubation
C. elegans Slo-1a = C. elegans Slo-1a (Caenorhabditis elegans, UniProt Q95V25); test: In vitro assay 1: C. elegans Slo-1a, action at a recombinant C. elegans CHO cell line (membrane potential measurement)
Chain of C. elegans Slo-1a (Q95V25 whole entry): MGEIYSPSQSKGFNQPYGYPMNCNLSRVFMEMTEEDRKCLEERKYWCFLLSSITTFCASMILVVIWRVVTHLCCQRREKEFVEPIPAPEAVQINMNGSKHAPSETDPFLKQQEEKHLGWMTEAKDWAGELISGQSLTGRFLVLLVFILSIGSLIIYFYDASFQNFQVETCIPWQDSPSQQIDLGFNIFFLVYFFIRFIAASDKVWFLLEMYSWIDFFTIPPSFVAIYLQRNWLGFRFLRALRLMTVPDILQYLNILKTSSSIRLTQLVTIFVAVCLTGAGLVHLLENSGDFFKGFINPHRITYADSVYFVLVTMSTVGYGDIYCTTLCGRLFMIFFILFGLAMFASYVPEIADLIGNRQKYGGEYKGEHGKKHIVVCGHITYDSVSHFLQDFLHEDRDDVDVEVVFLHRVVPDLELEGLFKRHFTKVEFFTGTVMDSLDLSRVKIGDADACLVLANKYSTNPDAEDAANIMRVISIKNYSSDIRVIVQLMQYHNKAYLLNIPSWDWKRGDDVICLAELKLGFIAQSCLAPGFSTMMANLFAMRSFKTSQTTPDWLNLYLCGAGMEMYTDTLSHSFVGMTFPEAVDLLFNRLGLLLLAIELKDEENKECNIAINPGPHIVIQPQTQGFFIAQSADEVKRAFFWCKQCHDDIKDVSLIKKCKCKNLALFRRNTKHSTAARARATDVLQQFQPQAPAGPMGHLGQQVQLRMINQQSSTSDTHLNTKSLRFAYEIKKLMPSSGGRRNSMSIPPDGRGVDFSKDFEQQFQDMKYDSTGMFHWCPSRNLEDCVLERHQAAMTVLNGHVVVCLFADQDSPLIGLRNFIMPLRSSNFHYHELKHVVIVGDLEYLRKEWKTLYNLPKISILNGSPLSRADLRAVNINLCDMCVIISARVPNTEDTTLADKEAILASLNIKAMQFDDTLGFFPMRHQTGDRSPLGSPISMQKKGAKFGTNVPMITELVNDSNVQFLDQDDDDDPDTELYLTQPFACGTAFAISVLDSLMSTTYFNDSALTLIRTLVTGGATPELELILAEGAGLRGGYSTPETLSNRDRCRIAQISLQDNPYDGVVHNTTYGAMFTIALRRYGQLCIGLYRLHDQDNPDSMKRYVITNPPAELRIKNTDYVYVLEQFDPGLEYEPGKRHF

[2] = log P by HPLC on reversed phase columns (Method L0; [a] acidic, [b] neutral range)
Experimental: Calibration was done with straight-chain alkan-2-ones (with 3 to 16 carbon atoms) with known log P values (measurement of log P values using retention times with linear interpolation between successive alkanones). Lambda-max-values were determined using UV-spectra from 200 nm to 400 nm and the peak values of the chromatographic signals.

SMILES | EC50 [1] [µg/mL] | EC50 (C. elegans Slo-1a) [nM] | chromatographic logP [2]
Cc1nn2c(C(C)C)c(C(=O)N[C@H]3CCc4ccccc43)cnc2c1-c1cccc(Cl)n1 [Example 183] | < 10 | 398 | 5.1
Cc1nn2c(C(C)C)c(C(=O)N[C@H]3CCOc4ccccc43)cnc2c1-c1cc(F)c(F)c(F)c1 [Example 185] | < 1 | 12.6 | 4.97
Cc1nn2c(C(C)C)c(C(=O)N[C@H]3CCOc4ccccc43)cnc2c1-c1cc(F)c(Cl)c(F)c1 [Example 190] | < 1 | 25.1 | 5.39
Cc1nn2c(C(C)C)c(C(=O)N[C@H]3CCOc4ccccc43)cnc2c1-c1cccc(Cl)n1 [Example 195] | < 10 | 158 | 4.85
CC(C)c1c(C(=O)N[C@H]2CCOc3ccccc32)cnc2c(-c3cc(Cl)cc(Cl)c3)c(C(F)(F)F)nn12 [Example 196] | < 10 | 50.1 | 5.84
CC(C)c1c(C(=O)N[C@H]2CCOc3ccccc32)cnc2c(-c3cc(Cl)c(F)c(Cl)c3)c(C(F)(F)F)nn12 [Example 197] | < 10 | 501 | 5.48
CSc1nn2c(C(C)C)c(C(=O)N[C@H]3CCOc4ccccc43)cnc2c1-c1cc(Cl)cc(Cl)c1 [Example 202] | < 10 | 25.1 | 6.35
CSc1nn2c(C(C)C)c(C(=O)N[C@H]3CCc4ccccc43)cnc2c1-c1cc(Cl)cc(Cl)c1 [Example 203] | < 10 | 200 | 6.67
Cc1nn2c(C(C)C)c(C(=O)N[C@H]3CCOc4ccccc43)cnc2c1-c1cccc(Br)c1 [Example 204] | < 0.1 | 15.8 | 5.02
Cc1nn2c(C(C)C)c(C(=O)N[C@H]3CCc4ccccc43)cnc2c1-c1cccc(Br)c1 [Example 205] | < 0.1 | 25.1 | 5.31
Cc1nn2c(C(C)C)c(C(=O)N[C@H]3CCc4ccccc43)cnc2c1-c1ccc(Br)cc1 [Example 207] | < 10 | 50.1 | 5.31
Cc1nn2c(C(C)C)c(C(=O)NC3COc4ccccc43)cnc2c1-c1c(F)cccc1F (stereo not drawn) [Example 210] | < 1 | 158 | 3.99
CCS(=O)(=O)c1nn2c(C(C)C)c(C(=O)N[C@H]3CCc4ccccc43)cnc2c1-c1cc(Cl)cc(Cl)c1 [Example 211] | < 10 | 1260 | 4.62
CCS(=O)(=O)c1nn2c(C(C)C)c(C(=O)N[C@H]3CCOc4ccccc43)cnc2c1-c1cc(Cl)cc(Cl)c1 [Example 212] | < 10 | 501 | 4.37
CC(C)c1c(C(=O)N[C@H]2CCOc3ccccc32)cnc2c(-c3cc(Cl)cc(Cl)c3)c(S(=O)(=O)C(C)C)nn12 [Example 217] | < 10 | 398 | 4.57
Cc1nn2c(C(C)C)c(C(=O)N[C@H]3CCOc4ccccc43)cnc2c1-c1ccc(F)cc1Cl [Example 218] | < 0.1 | 1.58 | 4.51
Cc1nn2c(C(C)C)c(C(=O)N[C@H]3CCOc4ccccc43)cnc2c1-c1ccc(Cl)c(F)c1 [Example 220] | < 1 | 20 | 5.08
Cc1nn2c(C(C)C)c(C(=O)N[C@H]3CCOc4ccccc43)cnc2c1-c1cnc(F)c(F)c1 [Example 221] | < 1 | 10 | 4.13
CCC(C)c1c(C(=O)N[C@H]2CCc3ccccc32)cnc2c(-c3c(F)cccc3Cl)c(C)nn12 (stereo partly drawn) [Example 222] | < 0.1 | 39.8 | 4.98
Cc1nn2c(C(C)C)c(C(=O)N[C@H]3CCc4ccccc43)cnc2c1-c1c(Cl)cccc1Cl [Example 223] | < 1 | 12.6 | 4.87
Cc1nn2c(CC(C)C)c(C(=O)N[C@H]3CCc4ccccc43)cnc2c1-c1c(F)cccc1Cl [Example 224] | < 1 | 31.6 | 4.82
Cc1nn2c(CC(C)C)c(C(=O)N[C@H]3CCOc4ccccc43)cnc2c1-c1c(F)cccc1Cl [Example 225] | < 0.1 | 12.6 | 4.56
Cc1nn2c(Cc3ccc(F)cc3)c(C(=O)N[C@H]3CCc4ccccc43)cnc2c1-c1c(F)cccc1Cl [Example 227] | < 10 | 2000 | 4.92
Cc1nn2c(Cc3ccc(F)cc3)c(C(=O)N[C@H]3CCOc4ccccc43)cnc2c1-c1c(F)cccc1Cl [Example 228] | < 1 | 3160 | 4.72
CC(C)c1c(C(=O)N[C@H]2CCc3ccccc32)cnc2c(-c3cc(Cl)cc(Cl)c3)c(S(C)(=O)=O)nn12 [Example 229] | < 1 | 63.1 | 4.35
